According to US9526730B2, “Use of a DPP-4 inhibitor in podocytes related disorders and/or nephrotic syndrome” (Boehringer Ingelheim International GmbH, priority 2012, dated 2016):

Experiments:
diabetic db/db mice = experiment: Diabetic nephropathy model: male diabetic db/db mice treated for 12 weeks (renal histology, immunohistochemistry, albumin excretion); type: in vivo, mouse; conditions: for effect on fasted or post-prandial glucose levels / Podocalyxin expression (glomerular staining score 0-3): 12 weeks; for Podocalyxin expression (glomerular staining score 0-3): linagliptin 3 mg/kg/day, enalapril 20 mg/kg/day, db/db vehicle 1.59±0.2, db/+ 2.65±0.1; for glomerular mesangial matrix expansion compared with diabetic vehicle / tubulointerstitial fibrosis compared with diabetic vehicle: histology
Procedure: The expression of podocalyxin is analyzed by immunohistochemistry using a podocalyxin specific antibody. Kidney sections from male diabetic db/db mice (10 weeks old at start and treated for 3 months) in the following groups are analyzed:
Diabetic control (n=10), linagliptin 3 mg/kg (n=8), enalapril 20 mg/kg (n=10) and heterozygous control mice (n=8).
All of the evaluations of the glomerular staining intensities are done semiquantitatively by two different experts of kidney pathology blinded for the slides.
The predefined scoring gradient is 0, 1, 2, and 3. 0 means no expression, whereas 3 is given when expression is highest. Group means are compared with a non-parametric test. P values less than 0.05 are considered significant.
Diabetic nephropathy is the main cause of end-stage renal disease. This study investigated the effects of linagliptin on diabetic nephropathy in severe insulin-resistant and old db/db mice as a model for diabetic nephropathy. Male diabetic db/db mice (10 weeks) were divided into 3 groups and treated for 12 weeks with vehicle (n=10), linagliptin 3 mg/kg/day (n=8), or the angiotensin converting enzyme (ACE) inhibitor enalapril 20 mg/kg/day (n=10).
Heterozygous db/+ mice treated with vehicle were used as controls (n=8). Levels of glucose, triglycerides, insulin, cystatin C and creatinine were analyzed in serum and urine samples at baseline and monthly thereafter. Body weight, urinary albumin excretion and OGTT were monitored periodically.
Renal histology (glomerulosclerosis, tubulointerstitial fibrosis) and expression of the sialoglycoprotein podocalyxin (a marker of podocyte integrity in the glomeruli, marker for glomerular damage), glucagon-like peptide 1 receptor (GLP-1R), alpha-smooth muscle actin and type I collagen were evaluated at the end of the study.

[1] = test system: rats with 5/6 nephrectomy; experiment: Rat model of chronic kidney disease (5/6 nephrectomy), 130 days; conditions: for glomerulosclerosis (glomerulosclerosic index) / decrease of glomerular size vs PBO-treated 5/6 NX rats / decrease of interstitial fibrosis vs PBO-treated 5/6 NX rats: 130 days; for osteopontin vs PBO-treated 5/6 NX rats: plasma biomarker
[2] = Pooled analysis of four 24-week placebo-controlled trials: albuminuria (UACR) in T2D patients with early diabetic nephropathy on stable ACE/ARB (set 1); type: in vivo, human
Text: Despite optimal therapy, people with type 2 diabetes (T2D) remain at high risk for kidney damage, manifest as albuminuria, and many develop progressive renal failure. Further, despite optimal therapy with inhibitors of the renin-angiotensin-aldosterone systeme (RAAS), patients with type 2 diabetes mellitus (T2DM) remain at an increased risk of progressive renal failure and cardiovascular disease, for which album inuria has emerged as a predictive biomarker. Linagliptin, a DPP-4 inhibitor, has previously shown evidence of albumin lowering on top of telmisartan in mice. We explored the clinical effect of linagliptin on albuminuria in T2D patients with early diabetic nephropathy. Four randomized, double-blind, 24-week, placebo-controlled trials of linagliptin (5 mg qd) on no, mono, or dual oral glucose-lowering background therapy (such as e.g. linagliptin monotherapy, linagliptin add-on to metformin or linagliptin add-on to metformin plus a sulphonylurea, or linagliptin plus metformin initial combination) had data available for urinary albumin-to-creatinine ratio (UACR) and were pooled for analysis (n=2472). Participants were included in this analysis if they had: i) 30≦UACR≦3000 mg/g creatinine; ii) stable treatment with ACE/ARBs ≧4 weeks prior and during the trial; and iii) eGFR>30 ml/min/1.73 m^2. The endpoint was the percentage change in geometric mean UACR. In this analysis, 492 (19.9%) patients met UACR and eGFR thresholds of whom 46% received stable ACE/ARB therapy (linagliptin n=168; placebo n=59). Mean baseline A1C and median UACR were 8.2% vs 8.5% and 76 vs 78 mg/g creatinine for the linagliptin and placebo groups, respectively. After 24 weeks, placebo-corrected changes in A1C and FPG were −0.71% and −26 mg/dl, respectively (both p<0.0001). […] Overall, kidney function and blood pressure were unchanged although more patients on placebo received new anti-hypertensive drugs (17% vs 11% with linagliptin). […] Linagliptin may have kidney-protective properties beyond glucose-lowering effects. This protective effect may be independent of race. Linagliptin may be useful for treating or lowering albuminuria on top of standard of care of angiotensin-converting enzyme (ACE) inhibition or angiotensin II receptor blockade (ARB) in T2DM patients with early diabetic nephropathy.
(§1) Seven randomised, double-blind, placebo-controlled trials (duration 24-52 weeks) of linagliptin (5 mg q.d.) as monotherapy or add-on to various glucose-lowering background therapies had data available for urinary albumin-to-creatinine ratio (UACR) and were eligible for this analysis (n=4113). Data after 24 weeks of treatment were generated to allow pooling and two sets were defined: 1) Diabetic nephropathy in earlier stages of T2D (with and without oral glucose-lowering background therapies, such as e.g. linagliptin monotherapy, linagliptin add-on to metformin or linagliptin add-on to metformin plus a sulphonylurea, or linagliptin plus metformin initial combination): participants from four 24-week pivotal phase III trials if they had persistent albuminuria, defined as 30≦UACR≦3000 mg/g (eGFR>30 ml/min/1.73 m^2) and stable treatment with an angiotensin-converting enzyme inhibitor (ACEi) or angiotensin II receptor blocker (ARB) at baseline (ongoing treatment with ACEi or ARB); 2) Diabetic nephropathy in elderly patients (various glucose-lowering background therapies including insulin, such as e.g. linagliptin monotherapy, linagliptin add-on to metformin or linagliptin add-on to metformin plus a sulphonylurea, or linagliptin plus metformin initial combination, or linagliptin in combination with basal insulin): patients from all seven trials, fulfilling UACR criteria 30≦UACR≦3000 mg/g (eGFR>30 ml/min/1.73 m^2) and aged ≧65 years (with or without ongoing treatment with ACEi or ARB). The endpoint in both sets was the percentage change in geometric mean UACR after 24 weeks.

[3] = Pooled analysis of seven placebo-controlled trials: UACR in elderly (>=65 years) T2D patients with diabetic nephropathy (set 2); type: in vivo, human
Procedure: as §1

[4] = Safety and tolerability in people with type 2 diabetes
[5] = Pharmacokinetics of BI 1356, multiple oral doses once daily for 12 days in patients with type 2 diabetes; conditions: for feT,ss: steady state (Day 12); for feT,ss / fe0-24: gMean; for fe0-24: fraction excreted in urine
[6] = Meta-analysis of 13 phase 3 placebo-controlled trials: renal safety and outcomes in 5466 patients with type 2 diabetes
Text: The aim of this study was to evaluate renal safety/outcomes with linagliptin in phase 3, randomized, double-blind, placebo-controlled trials (≧12 wks).

[7] = LIN 0.083 mg/kg in chow, TEL 5 mg/kg/d in drinking water
[8] = linagliptin 5 mg qd, after 24 weeks, set 1

## CCOC(=O)[C@H](CCc1ccccc1)N[C@@H](C)C(=O)N1CCC[C@H]1C(=O)O [enalapril, reference compound]
Diabetic db/db mice
  effect on fasted or post-prandial glucose levels: limited effects
  Podocalyxin expression (glomerular staining score 0-3): 2.4±0.2
Diabetic db/db mice; p<0.05
  glomerular mesangial matrix expansion compared with diabetic vehicle: reduced almost to control levels
  tubulointerstitial fibrosis compared with diabetic vehicle: reduced almost to control levels

## CCCc1nc2c(C)cc(-c3nc4ccccc4n3C)cc2n1Cc1ccc(-c2ccccc2C(=O)O)cc1 [telmisartan, reference compound]
[1]; 5/6 NX rats
  Blood pressure lowering: 31 mmHg
  TGF-β expression: significantly decreases
  glomerulosclerosis (glomerulosclerosic index): trend towards decreased
[1]; [7]
  decrease of urinary albumin/creatinine ratio vs PBO-treated 5/6 NX rats: 92%
  decrease of glomerular size vs PBO-treated 5/6 NX rats: not significantly
  decrease of interstitial fibrosis vs PBO-treated 5/6 NX rats: 24%
[1]
  osteopontin vs PBO-treated 5/6 NX rats: significantly decreases

## CC#CCn1c(N2CCC[C@@H](N)C2)nc2c1c(=O)n(Cc1nc(C)c3ccccc3n1)c(=O)n2C [linagliptin]
Diabetic db/db mice
  expression of α-smooth muscle actin-positive myofibroblasts in interstitium and glomeruli: normalized
  effect on fasted or post-prandial glucose levels: limited effects
  Podocalyxin expression (glomerular staining score 0-3): 2.3±0.2
Diabetic db/db mice; blood glucose independent
  loss of podocytes (podocalyxin staining): significantly reduces
Diabetic db/db mice; p<0.05
  glomerular mesangial matrix expansion compared with diabetic vehicle: reduced almost to control levels
  tubulointerstitial fibrosis compared with diabetic vehicle: reduced almost to control levels
  Urinary albumin excretion rates compared with enalapril-treated mice: significantly decreased
  tubulointerstitial fibrosis compared with enalapril-treated mice: significantly decreased
Diabetic db/db mice; linagliptin 3 mg/kg/day 12 weeks, vehicle db/db 1.67±0.07, healthy 2.15±0.1
  GLP-1R expression in the glomeruli (immunohistochemical staining): 1.90±0.04
[2]; 24 weeks
  kidney function and blood pressure: unchanged
[2]; linagliptin 5 mg qd, 24 weeks, on stable ACE/ARB, set 1
  lowering of adjusted UACR (geometric mean): 33%
[2]; linagliptin 5 mg qd, 24 weeks, set 1
  between group difference vs placebo in UACR: −29%
[2]; [8]
  placebo-corrected change in A1C (HbA1c): −0.71%
  placebo-corrected change in FPG: -26 mg/dL
  placebo-corrected change in fasting plasma glucose: -1.4 mmol/L
[3]; all seven studies
  blood pressure and renal function: not affected to a clinically meaningful extent
[3]; as early as
  treatment duration at which overall UACR effect occurs: 12 weeks
[3]; linagliptin 5 mg q.d., 24 weeks, set 2
  reduction of UACR versus placebo (trend): −25%
[3]; linagliptin 5 mg q.d., 24 weeks, set 2, aged >=65 years
  lowering of adjusted UACR: 30%
[4]
  safety and tolerability: placebo-like
[1]; 5/6 NX rats
  Blood pressure lowering: unaffected
  glomerulosclerosis (glomerulosclerosic index): trend towards decreased
[1]; [7]
  decrease of glomerular size vs PBO-treated 5/6 NX rats: 18%
  decrease of interstitial fibrosis vs PBO-treated 5/6 NX rats: 48%
[1]
  osteopontin vs PBO-treated 5/6 NX rats: decreases
[1]; rat, in vivo
  plasma concentration of B2M vs PBO-treated 5/6 NX rats: decreases
  plasma concentration of TIMP-1 vs PBO-treated 5/6 NX rats: decreases
[5]; 1 mg oral once daily
  feT,ss: 3.34%
[5]; 2.5 mg oral once daily
  feT,ss: 3.06%
  fe0-24: 0.139%
[5]; 5 mg oral once daily
  feT,ss: 6.27%
  fe0-24: 0.453%
[5]; 10 mg oral once daily
  feT,ss: 3.22%
  fe0-24: 0.919%
[5]; doses above 1 mg once daily
  mean accumulation ratio RA,AUC: ≤ 1.4
[5]; human, in vivo
  excretion of unchanged drug: primarily excreted unchanged via the bile
[5]; therapeutic oral dose levels
  excretion via the kidney: < 7 % of the administered oral dose
  main route of excretion: mainly excreted via the liver
[6]; linagliptin 5 mg qd, n=3505, placebo 306
  patients with composite renal endpoint events (number): 448 patients
[6]; linagliptin 5 mg qd, placebo 15.6%
  patients with composite renal endpoint events (proportion): 12.8%
[6]; patients <65 yrs
  HR for the composite endpoint: 0.77
[6]; patients >65 yrs
  HR for the composite endpoint: 1.04
[6]; vs placebo
  RR change: ARF: −7%
  RR change: death: −23%
  RR change: macroalbuminuria: −12%
  RR change: microalbuminuria: −15%
  RR change: new onset of CKD: −56%
  RR change: worsening of CKD: −24%
